# Reference: the NIST ThermoML archive (doi:10.1016/j.fluid.2010.12.003)
# Assay: xn = mol fraction of the nth substance listed
# Settings: 101 kPa, Fluid (supercritical or subcritical phases), Taylor dispersion method, x1 = 0
structure (smiles),measurement,setting,value
Oc1cc(O)c2c(c1)O[C@H](c1ccc(O)c(O)c1)[C@@H](O)C2 [(+)-catechin] + O,binary diffusion coefficient,298 K,2.33e-10 m2/s
same,binary diffusion coefficient,312 K,3.07e-10 m2/s
same,binary diffusion coefficient,332 K,3.76e-10 m2/s
same,binary diffusion coefficient,352 K,4.05e-10 m2/s
same,binary diffusion coefficient,372 K,4.25e-10 m2/s
same,binary diffusion coefficient,392 K,4.78e-10 m2/s
same,binary diffusion coefficient,413 K,5.3e-10 m2/s
"O=C(O)c1ccc(O)c(O)c1 [3,4-dihydroxybenzoic acid] + O",binary diffusion coefficient,298 K,2.46e-10 m2/s
same,binary diffusion coefficient,312 K,3.2e-10 m2/s
same,binary diffusion coefficient,332 K,3.84e-10 m2/s
same,binary diffusion coefficient,352 K,4.15e-10 m2/s
same,binary diffusion coefficient,372 K,5.12e-10 m2/s
same,binary diffusion coefficient,392 K,5.27e-10 m2/s
"COc1cc(-c2[o+]c3cc(O)cc(O[C@@H]4O[C@H](CO)[C@@H](O)[C@H](O)[C@H]4O)c3cc2O[C@@H]2O[C@H](CO)[C@@H](O)[C@H](O)[C@H]2O)cc(OC)c1O.[Cl-] [malvidin-3,5-diglucoside chloride] + O",binary diffusion coefficient,298 K,2.16e-10 m2/s
same,binary diffusion coefficient,312 K,2.71e-10 m2/s
same,binary diffusion coefficient,332 K,3.6e-10 m2/s
same,binary diffusion coefficient,352 K,4.41e-10 m2/s
same,binary diffusion coefficient,372 K,5.15e-10 m2/s
same,binary diffusion coefficient,392 K,5.3e-10 m2/s
same,binary diffusion coefficient,413 K,5.79e-10 m2/s
Oc1cc(O)c2c(c1)O[C@H](c1ccc(O)c(O)c1)[C@H](O)C2 + O,binary diffusion coefficient,298 K,1.97e-11 m2/s
same,binary diffusion coefficient,312 K,2.66e-11 m2/s
same,binary diffusion coefficient,332 K,3.38e-11 m2/s
same,binary diffusion coefficient,352 K,3.89e-11 m2/s
same,binary diffusion coefficient,372 K,4.06e-11 m2/s
same,binary diffusion coefficient,392 K,5.19e-11 m2/s
"O=C(O)c1cc(O)c(O)c(O)c1 [3,4,5-trihydroxybenzoic acid] + O",binary diffusion coefficient,298 K,2.5e-10 m2/s
same,binary diffusion coefficient,312 K,2.87e-10 m2/s
same,binary diffusion coefficient,332 K,3.3e-10 m2/s
same,binary diffusion coefficient,352 K,4.07e-10 m2/s
COc1cc(-c2[o+]c3cc(O)cc(O)c3cc2O[C@@H]2O[C@H](CO)[C@@H](O)[C@H](O)[C@H]2O)ccc1O.[Cl-] + O,binary diffusion coefficient,298 K,2.19e-10 m2/s
same,binary diffusion coefficient,312 K,2.67e-10 m2/s
same,binary diffusion coefficient,332 K,3.65e-10 m2/s
same,binary diffusion coefficient,352 K,4.52e-10 m2/s
same,binary diffusion coefficient,372 K,5.39e-10 m2/s
same,binary diffusion coefficient,392 K,6.18e-10 m2/s
same,binary diffusion coefficient,413 K,6.49e-10 m2/s
O=c1c(O[C@@H]2O[C@H]([C@H](O)CO)[C@H](O)[C@H]2O)c(-c2ccc(O)c(O)c2)oc2cc(O)cc(O)c12 [isoquercitrin] + O,binary diffusion coefficient,298 K,1.66e-10 m2/s
same,binary diffusion coefficient,312 K,2.19e-10 m2/s
same,binary diffusion coefficient,332 K,2.77e-10 m2/s
same,binary diffusion coefficient,352 K,3.07e-10 m2/s
same,binary diffusion coefficient,372 K,3.51e-10 m2/s
